In patent US10927075B2, “Compositions and methods relating to the treatment of cancer, autoimmune disease, and neurodegenerative disease” (THE JACKSON LABORATORY, priority 2014, dated 2021):

Legend:
[1] = system: Primary splenic B-cells from AID-expressing mice; experiment: Cell viability of primary splenic B-cells, AID-expressing versus AID-negative mice; assay type: cell-based; conditions: compared to primary splenic B-cells in AID-negative mice
From the text: Primary splenic B-cells from AID-expressing mice were exposed to C-1523-1a and the BTK inhibitor ibrutinib and cell viability was compared to primary splenic B-cells in AID-negative mice (FIG. 9).

[2] = system: non-Hodgkin's lymphoma model; experiment: Non-Hodgkin's lymphoma model; conditions: in vivo
Description: (§1) The effects of C-1523 have been tested in vitro in cultured cancer cells and in vivo with human cell samples. Preclinical pharmacokinetic analyses were conducted to determine the fate of the compound as it is administered.

primary B-cells (AID+) = experiment: Dose response in primary B-cells (AID+); assay type: cell-based; conditions: FIG. 10
Description: Dose responses for C-1523 (blue) and C-1523-1a (red) in primary B-cells (AID+) was determined (FIG. 10).

[3] = Pharmacokinetics after single intravenous injection or oral gavage; assay type: in vivo, Sprague Dawley rats
Description: C-1523-1A was formulated in PBS with 5% DMSO and given via single intravenous injection (1 milligram per kilogram) or by oral gavage to Sprague Dawley rats (2 milligrams per kilogram). Plasma concentrations were measure by mass spectrometry at t=15 min, t=30 min, t=1 hr, t=2 hr, t=4 hr, and t=8 hr for the intravenous cohort and at t=1 hr, t-2 hr, t-3 hr, t-4 hr, t-5 hr, t-6 hr. […] Oral availability is 2-3% (FIG. 3).

[4] = Plasma concentration after administration of 2, 10, or 20 milligrams per kilogram; assay type: in vivo, Sprague Dawley rats; conditions: Sprague Dawley, rat, 20 mg/kg dosing
Description: Pharmacokinetic measurements of DIDS, C-1523, and C-1523-1a following oral and intravenous administration to Sprague Dawly rats were made (FIGS. 4-6) and the plasma concentration of C-1523-1a at t=15 min, t=30 min, t=1 hr, t=2 hr, t=8 hr, and t=24 hr following administration of 2, 10, or 20 milligrams per kilogram to Sprague Dawley rats was determined (FIG. 7).
as §1

[5] = system: AID-expressing mouse B-lymphocytes
[6] = system: primary splenic B-cells from WT (AID-expressing) mice; conditions: Ishida et al., 2009; Lamont et al., 2013; cited from earlier work
MEC-1 cells = experiment: Micronuclei assay; assay type: cell-based, human; conditions: cyclophosphamide treatment
[7] = system: Primary mouse B cells (WT); experiment: Micronuclei assay; assay type: cell-based; conditions: all genotypes tested (WT, AID−/−, and p53−/−), 5 μg/mL, 3 d
[8] = system: Primary AID-expressing B-cells; experiment: Cell survival analysis; assay type: cell-based; conditions: 100 nM versus vehicle (DMSO)
Description: FIG. 27 depicts a graph of cell survival analysis of primary AID-expressing B-cells treated with C-1523-1AD4 (100 nM) versus vehicle (DMSO).
Primary AID-expressing B-cells were sensitive to C-1523-1AD4 (FIG. 27).

Compound: CC(=O)Nc1ccc(/C=C/c2ccc(NC(=S)NC(C)C)cc2S(N)(=O)=O)c(S(N)(=O)=O)c1 [C-1523-1a, (E)-N-(4-(4-(3-isopropylthioureido)-2-sulfamoylstyryl)-3-sulfamoylphenyl)acetamide]
- potency and selectivity for AID+ cells (cell viability) [1]: surprisingly potent and selective for AID+ cells
- acute toxicity (in vivo): almost no acute toxicity
- tolerance to prolonged drug exposure (single and multiple dose): excellent tolerance
- tumors [2]: successfully reduced tumors
- concentration below which response is consistent (primary B-cells (AID+)): below 10 nM
- AUC ([3]; Sprague Dawley, rat, plasma, single intravenous injection 1 milligram per kilogram): 971 ng·h/mL
- half-life ([3]; Sprague Dawley, rat, plasma, single intravenous injection 1 milligram per kilogram, PBS with 5% DMSO): 90 min
- Vd ([3]; Sprague Dawley, rat, plasma, single intravenous injection 1 milligram per kilogram, read-out: Vss): 0.29 L/kg
- Oral availability ([3]; oral gavage 2 milligrams per kilogram): 2-3%
- half-life [4]: ~360 min

Compound: O=S(=O)(O)c1cc(N=C=S)ccc1C=Cc1ccc(N=C=S)cc1S(=O)(=O)O [DIDS, 4,4′-diisothiocyanatostilbene-2,2′-disulfonic acid, reference compound]
- concentration eliciting AID-specific cytotoxicity [5]: 150 µM
- cell death [6]: induces cell death in primary B-lymphocytes

Compound: O=P1(N(CCCl)CCCl)NCCCO1 (stereo not drawn) [cyclophosphamide, reference compound]
- micronuclei relative to primary cells (MEC-1 cells): approximately half as much micronuclei as primary cells
- micronuclei [7]: approximately 9%

Compound: disodium (E)-((5- acetamido-2-(2-(N- isobutyrylsulfamoyl)-4- (3-isopropylthioureido) styryl)phenyl)sulfonyl) (isobutyryl)amide [C-1523-1AD4]
- sensitivity (cell survival) [8]: sensitive
